Where two headings read alike, the source gives them in different places.
Experiments:
[1] = test system: L3.6pl human pancreatic cancer cells; test: Cytotoxicity dose-response (MTS) in L3.6pl cells; format: cell-based
Description: L3.6pl Studies. Compounds 9 and 10 were evaluated in the metastatic human pancreatic cancer cell line, L3.6pl. L3.6pl has a K-ras mutation, and high polyamine uptake activity.^7 A dose-response curve was obtained for each compound in L3.6pl cells to determine the 72 h L3.6pl IC50 value, described as the dose at which L3.6pl cells were 50% viable compared to the untreated control.
(§1) Regarding the biological studies performed in the following examples, it is noted that CHO K1, CHO-MG, and L3.6pl cells were grown in RPMI 1640 medium supplemented with 10% fetal bovine serum (FBS) and 1% penicillin/streptomycin. All cells were grown at 37° C. under a humidified 5% CO2 atmosphere. Aminoguanidine (1 mM used for CHO K1 and CHOMG cells and 250 μM for L3.6pl) was added to the growth medium to prevent oxidation of the compounds of the bovine serum amine oxidase enzyme that is present in calf serum. The cells used were in early to mid log phase and CHO and CHOMG were plated out at 1000 cells/well, whereas the L3.6pl cells were plated at 500 cells/well in a 96 well plate format.
(§2) This example illustrates aspects according to various embodiments pertaining to IC50 determinations and cell viability studies. Cell growth was assayed in sterile 96-well microtiter plates (Costar 3599, Corning, N.Y.). CHO K1 or CHOMG cells were plated at 1,000 cells/70 μL and L3.6pl cells at 500 cells/70 μL. The drug solutions of appropriate concentration in phosphate buffered saline (PBS) were added 10 μL per well after overnight incubation. After drug exposure (e.g., for 48 h for CHO K1 and CHO-MG and 48 h or 72 h for L3.6pl), cell growth was determined by measuring formazan formation from the 3-(4,5dimethylthiazol-2-yl)-5-(3-carboxymethoxyphenyl)-2-(4-sulfenyl)-2H tetrazolium, inner salt (MTS) using SynergyMx Biotek microplate reader for absorbance (490 nm) measurements.^27 All experiments were run in triplicate.

LAT-1 [2] = target: T1, LAT-1 (Homo sapiens, UniProt Q01650); test: 3H-Leucine efflux assay; format: cell-based; conditions: L3.6pl, 2 min; JPH-203 30 μM or compound 10 20 μM
T1 construct: endogenous in cells; host or cells: L3.6pl human pancreatic cancer cells
Description: JPH203 is not toxic to L3.6pl cells over this concentration range and time interval. FIG. 10E is an example according to various embodiments, illustrating results obtained for a Leu uptake inhibition experiment with compound 10. Note: the y-axis in FIG. 10E is in CPM per ug of protein to normalize the data and account for any potential losses of cells due to toxicity of compound 10. FIG. 10F is an example according to various embodiments, illustrating results obtained for a Leucine efflux experiment with LAT-1 inhibitor JPH-203. Briefly, the efflux procedure involved cells pre-incubated with ‘hot’ leucine (3H labeled) and washed to remove unbound radiolabeled Leucine. The cells were then incubated in the presence and absence of unlabeled Leucine (100 μM) and/or the LAT-1 inhibitor JPH-203 (30 μM). In the presence of unlabeled leucine, the cells released ‘hot’ 3H-leucine into the media which was measured via scintillation/radioactivity counts. This efflux or release from within the cell was inhibited by the presence of the LAT-1 inhibitor, JPH-203 (30 μM, FIG. 10F). Since JPH203 inhibits the import of unlabeled leucine then less unlabeled Leucine will enter the cell and less efflux of radiolabeled Leucine molecules from inside the cell will be observed. This is consistent with JPH-203 being a LAT-1 inhibitor. FIG. 10G is an example according to various embodiments, illustrating results obtained for a two minute Leucine efflux experiment with compound 10. Cells were pre-incubated with ‘hot’ leucine (^3H labeled) and washed to remove unbound radiolabeled Leucine. The cells were then incubated in the presence and absence of unlabeled “cold” Leucine (100 μM) and/or the compound 10 (20 μM). In the presence of unlabeled ‘cold’ leucine, the cells released ‘hot’ ^3H-leucine into the media which was measured via scintillation/radioactivity counting. […] The efflux experiment was repeated and the time for monitoring efflux increased to 30 minutes. […] In summary, compound 10 inhibits Leucine uptake and facilitates LAT-1 mediated efflux.
^3H-Leucine Efflux Assay ^3H-Leucine efflux experiments were performed according to the protocol developed by Hälfliger et al. (2018) (referenced below) with the following changes. Briefly, cells were preloaded with 12 μM stock of L-[^3H]leucine (79 Ci/mmol) to give a final concentration of ^3H-leucine was 1.2 μM in each well. […] The medium was then collected and mixed with scintillation fluid (Scintiverse™ BD Cocktail) and radioactivity measured (Beckman Coulter LS 6500 Multi-Purpose Scintillation Counter). […] The lysate (300 μL) was mixed with scintillation fluid and radioactivity was counted. Relative efflux was expressed as percentage radioactivity=100%×(radioactivity of medium)/(radioactivity of the medium+radioactivity of the cells). […]

LAT-1 [3] = target: T1, LAT-1; test: 3H-Leucine uptake assay; format: cell-based; conditions: L3.6pl cells, increasing concentration, 15 min uptake (FIG. 10D, 10E)
Description: ^3H-Leucine uptake experiments were performed according to the protocol developed by Hälfliger et al. (2018) (referenced below with the following changes. Briefly, cells were seeded at 60% confluency in a 24-well plate and incubated for 4 h at 37° C. After 4 hours, different concentrations of compound 10 were added and the cells were then incubated overnight. L-^3H-leucine uptake inhibition was measured for 15 minutes using a 12 μM stock of L-[^3H]leucine (79 Ci/mmol). The final concentration of ^3H-leucine in each well was 1.2 uM. This concentration produced a CPM reading of ˜4000 cpm for the control. Uptake was terminated by removing the buffer solution followed by washing the cells with cold Na^+-free Hank's Balanced Salt Solution. Cells were then lysed to give ˜500 μL of cell lysate. A portion of the cell lysate (200 μL) was mixed with Scintiverse™ BD Cocktail for determining radiocounts. The radioactivity was measured with a scintillation counter (Beckman Coulter LS 6500 Multi-Purpose Scintillation Counter). Another portion of the cell lysate (300 μL) was used for protein determination using the BCA method. The final data was expressed as cpm/microgram of protein to account for the different number of cells remaining after the experiment. This was necessary because compound 10 was toxic and less cells were present after the overnight incubation (24 h). […]

CHO K1 cells [4] = test: Cytotoxicity dose-response (MTS cell viability) in CHO K1 cells; format: cell-based, Chinese hamster; conditions: 48 h
Description: CHO K1 Studies. Wild type Chinese hamster ovary (CHO K1) cells were chosen to first study the synthetic compounds' impact on polyamine metabolism. The CHO K1 cell line has high polyamine transport activity and was useful in screening compounds for their polyamine transport inhibitor activity. A dose-response curve was obtained for each compound to determine their toxicity in CHO K1 cells after 48 h incubation. Compound 9 (1666.177) was non-toxic up to the highest dose tested (15 μM).
as §1, §2

L3.6pl cells = test: Ant-44 toxicity potentiation assay in L3.6pl cells; format: cell-based, human; conditions: Homo sapiens, Ant-44 2 μM, 72 h
Description: As performed previously with CHO K1 cells, L3.6pl cells were treated with compounds 9 (1666.177) and 10 (1666.255) and a fixed dose of Ant-44 to observe the potentiation effect. The 72 h IC50 dose of Ant-44 in L3.6pl cells was previously determined to be 4 μM. For this study, half that dose was used to replicate the large window used in the CHO experiments to look at reduction in cell viability. In a 96-well plate, L3.6pl cells were dosed with a fixed concentration of Ant-44 (2 μM) and increasing doses of compounds 9 (1666.177) and 10 (1666.255). Although both compounds were effective at reducing cell viability, higher doses were required compared to CHO K1 cells.
FIG. 6 is an example according to various embodiments, illustrating the ability of compounds 9 (1666.177) and 10 ([…]) to potentiate the effect of Ant-44 in L3.6pl cells. Cells were incubated for 72 h at 37° C. with the respective compound and Ant-44 (2 μM). A 250 μM AG solution was incubated with the cells for 24 h prior to addition of compounds. […] Both compounds are nontoxic at the second highest concentration tested (1 μM).

CHO K1 cells [5] = test: cells; format: cell-based, Chinese hamster; conditions: Cricetulus griseus, Ant-44 0.5 μM
Description: Various embodiments involve the concept that a non-toxic PTI agent would inhibit the uptake of the cytotoxic polyamine conjugate Ant-44 (11) and rescue cells from Ant-44 induced toxicity. For example, using the IC50 dose of Ant-44, PTIs could be identified by measuring a compound's ability to block Ant-44 entry and rescue cells back to >90% viability. […] This toxic dose of Ant-44 was kept constant throughout the assay, while the candidate PTI compound was added in increasing concentrations up to its MTD.
Compounds (9 and 10) were tested at 5 μM and 7 μM. CHO K1 cells were treated in a 96-well plate with a toxic dose of Ant-44 (2.4 μM) alone and dosed with the candidate compounds (at 5 μM and 7 μM) and incubated for 48 h at 37° C.
To further explore this effect, development of various embodiments included modifying an original screen to use a lower dose of Ant-44 (0.5 μM) to improve the dose range of 9 and 10 that could be tested. In this regard, Ant-44 was dosed at 0.5 μM alone and in combination with increasing doses of compounds 9 (1666.177) and 10 (1666.255) and the CHO K1 cells were incubated for 48 h at 37° C., and the results are shown in FIG. 5. The red line represents the % cell viability of the Ant-44 only control. The Ant44 potentiation assay EC50 value is defined as the concentration of the candidate compound required to decrease the cell viability to half that of the Ant-44 only control. Both compounds 9 and 10 were effective at decreasing cell viability, when used in combination with Ant-44 in a dose dependent fashion.
FIG. 5 is an example according to various embodiments, illustrating potentiation of Ant-44 toxicity by compounds 9 and 10 in CHO K1 cells. Cells were incubated for 48 h at 37° C. with the respective compound and a fixed concentration of cytotoxic Ant-44 (0.5 μM). A 1 mM AG solution was incubated with the CHO K1 cells for 24 h prior to the addition of candidate compound. This was necessary to protect Ant-44 from the amine oxidases present in the media containing fetal bovine serum. […] Both compounds are nontoxic at the highest concentration tested (5 μM).

CHO K1 cells [6] = conditions: previously determined (ref 7), read-out: 48 h IC50; cited from earlier work

T1 sequence (Q01650 whole entry): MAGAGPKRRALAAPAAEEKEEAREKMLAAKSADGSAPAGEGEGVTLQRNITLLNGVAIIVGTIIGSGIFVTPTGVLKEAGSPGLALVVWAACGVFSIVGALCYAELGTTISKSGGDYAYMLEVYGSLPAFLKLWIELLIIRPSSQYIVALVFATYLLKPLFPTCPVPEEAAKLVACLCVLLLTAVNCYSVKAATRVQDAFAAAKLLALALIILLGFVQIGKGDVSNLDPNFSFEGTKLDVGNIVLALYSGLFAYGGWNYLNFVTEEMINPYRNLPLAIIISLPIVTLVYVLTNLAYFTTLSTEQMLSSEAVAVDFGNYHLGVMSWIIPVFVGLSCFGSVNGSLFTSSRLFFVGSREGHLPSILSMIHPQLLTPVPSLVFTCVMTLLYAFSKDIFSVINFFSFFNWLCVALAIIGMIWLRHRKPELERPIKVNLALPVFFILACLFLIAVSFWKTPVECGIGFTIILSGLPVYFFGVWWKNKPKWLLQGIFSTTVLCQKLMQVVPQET
T1 sequence (P08195 102-630 partner): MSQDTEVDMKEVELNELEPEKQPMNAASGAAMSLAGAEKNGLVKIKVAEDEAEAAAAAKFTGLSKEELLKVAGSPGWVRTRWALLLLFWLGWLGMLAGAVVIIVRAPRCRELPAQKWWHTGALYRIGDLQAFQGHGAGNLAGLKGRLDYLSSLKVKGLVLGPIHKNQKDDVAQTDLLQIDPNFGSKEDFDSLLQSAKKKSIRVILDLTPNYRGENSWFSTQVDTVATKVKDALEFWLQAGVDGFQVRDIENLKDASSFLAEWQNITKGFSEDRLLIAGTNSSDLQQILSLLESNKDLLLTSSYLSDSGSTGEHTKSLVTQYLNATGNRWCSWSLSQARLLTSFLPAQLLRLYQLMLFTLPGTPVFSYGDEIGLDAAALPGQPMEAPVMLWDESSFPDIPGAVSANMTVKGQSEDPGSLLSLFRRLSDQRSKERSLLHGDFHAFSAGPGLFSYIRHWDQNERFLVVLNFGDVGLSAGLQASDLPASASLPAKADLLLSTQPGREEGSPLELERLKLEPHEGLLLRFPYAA

In the case of `Nc1cc(COc2c(Cl)cc(C[C@H](N)C(=O)O)cc2Cl)c2oc(-c3ccccc3)nc2c1` [JPH-203, reference compound], the “toxicity to L3.6pl cells” value ([1]; over the concentration range and time interval of the uptake experiment) is reported as “not toxic”, the “3H-leucine efflux stimulated by unlabeled Leucine (100 μM)” value (LAT-1 [2]) is reported as “inhibited” and the “3H-leucine efflux, compound alone” value (LAT-1 [2]) is reported as “modestly stimulated efflux”. For the same molecule, the 3H-Leucine uptake (LAT-1 [3]) was “dose dependent decrease in 3H-Leucine uptake”.

For `CC(C)(C)CCN1CCN(C(CNCc2ccccc2)Cc2ccccc2)CC1Cc1ccccc1.Cl.Cl.Cl` (stereo not drawn) [Compound 9, Benzyl-{2-[3-benzyl-4-(3,3-dimethyl-butyl)-piperazin-1-yl]-3-phenyl-propyl}-amine trihydrochloride salt], the “toxicity of compound alone” value (CHO K1 cells [4]; CHO K1, highest concentration tested (5 μM)) was “nontoxic”, the “toxicity (dose-response curve)” value (CHO K1 cells [4]; CHO K1 cells, up to the highest dose tested (15 μM)) was “non-toxic” and the IC50 ([1]; Homo sapiens, L3.6pl cells, 72 h, read-out: 72 h IC50) was 11.7 ± 0.9 µM. For the same molecule, the “toxicity of compound alone” value ([1]; L3.6pl, second highest concentration tested (1 μM), 72 h) was “nontoxic”, the EC50 (L3.6pl cells) was 3.27 ± 0.17 µM and the EC50 (CHO K1 cells [5]; CHO K1 cells, 48 h (FIG. 5), read-out: Ant-44 potentiation EC50) was 0.75 µM. For the same molecule, the EC50 (CHO K1 cells [5]; CHO cells, 48 h, read-out: Ant44 potentiation assay EC50) was 0.75 µM.

In the case of `NCCC[C@](N)(C(=O)O)C(F)F` [DFMO, α-difluoromethylornithine], the IC50 (CHO K1 cells [6]) is given as 4200 µM.

— patent publication US20210317090A1, “AMINO ACID DEPLETION AGENTS AS ANTIPROLIFERATIVE AGENTS” (University of Central Florida Research Foundation, Inc., priority 2018, published 2021)
